Literature values as cited in PMC9516332 (Frontiers in Oncology, 2022).

How the values were obtained:
[1] = molecular target: panel of 255 wild-type kinases (Homo sapiens, UniProt P49137); details: kinase MAPKAPK2; 1 µmol/L single concentration; ref DOI: 10.1371/journal.pone.0092146; cited from earlier work
[2] = molecular target: panel of 255 wild-type kinases (Homo sapiens, UniProt Q9UM73); details: ALK kinase assay; 1 µmol/L single concentration; ref DOI: 10.1371/journal.pone.0092146; cited from earlier work
[3] = molecular target: T1, panel of 255 wild-type kinases (Homo sapiens, UniProt Q8IW41); details: MAPKAPK5; 1 µmol/L single concentration; ref DOI: 10.1371/journal.pone.0092146; cited from earlier work
T1 sequence (Q8IW41 1-473): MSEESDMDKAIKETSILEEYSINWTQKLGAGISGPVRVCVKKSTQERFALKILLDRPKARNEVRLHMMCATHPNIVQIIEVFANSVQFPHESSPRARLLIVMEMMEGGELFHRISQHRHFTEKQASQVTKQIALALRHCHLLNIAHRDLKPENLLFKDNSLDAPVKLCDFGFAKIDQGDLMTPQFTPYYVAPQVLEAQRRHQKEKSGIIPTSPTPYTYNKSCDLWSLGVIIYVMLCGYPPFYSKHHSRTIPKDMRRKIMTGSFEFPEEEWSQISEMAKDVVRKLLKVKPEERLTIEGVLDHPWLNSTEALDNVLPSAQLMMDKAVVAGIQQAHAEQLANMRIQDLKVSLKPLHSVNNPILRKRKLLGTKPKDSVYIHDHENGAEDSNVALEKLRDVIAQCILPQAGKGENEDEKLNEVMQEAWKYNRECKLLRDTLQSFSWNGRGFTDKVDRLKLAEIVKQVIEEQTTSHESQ

[4] = molecular target: panel of 255 wild-type kinases (Homo sapiens, UniProt Q9H422); details: kinase HIPK3; 1 µmol/L single concentration; ref DOI: 10.1371/journal.pone.0092146; cited from earlier work
[5] = molecular target: T2, panel of 255 wild-type kinases (Homo sapiens, UniProt Q06418); details: kinase TYRO3; 1 µmol/L single concentration; ref DOI: 10.1371/journal.pone.0092146; cited from earlier work
T2 sequence (Q06418 41-890): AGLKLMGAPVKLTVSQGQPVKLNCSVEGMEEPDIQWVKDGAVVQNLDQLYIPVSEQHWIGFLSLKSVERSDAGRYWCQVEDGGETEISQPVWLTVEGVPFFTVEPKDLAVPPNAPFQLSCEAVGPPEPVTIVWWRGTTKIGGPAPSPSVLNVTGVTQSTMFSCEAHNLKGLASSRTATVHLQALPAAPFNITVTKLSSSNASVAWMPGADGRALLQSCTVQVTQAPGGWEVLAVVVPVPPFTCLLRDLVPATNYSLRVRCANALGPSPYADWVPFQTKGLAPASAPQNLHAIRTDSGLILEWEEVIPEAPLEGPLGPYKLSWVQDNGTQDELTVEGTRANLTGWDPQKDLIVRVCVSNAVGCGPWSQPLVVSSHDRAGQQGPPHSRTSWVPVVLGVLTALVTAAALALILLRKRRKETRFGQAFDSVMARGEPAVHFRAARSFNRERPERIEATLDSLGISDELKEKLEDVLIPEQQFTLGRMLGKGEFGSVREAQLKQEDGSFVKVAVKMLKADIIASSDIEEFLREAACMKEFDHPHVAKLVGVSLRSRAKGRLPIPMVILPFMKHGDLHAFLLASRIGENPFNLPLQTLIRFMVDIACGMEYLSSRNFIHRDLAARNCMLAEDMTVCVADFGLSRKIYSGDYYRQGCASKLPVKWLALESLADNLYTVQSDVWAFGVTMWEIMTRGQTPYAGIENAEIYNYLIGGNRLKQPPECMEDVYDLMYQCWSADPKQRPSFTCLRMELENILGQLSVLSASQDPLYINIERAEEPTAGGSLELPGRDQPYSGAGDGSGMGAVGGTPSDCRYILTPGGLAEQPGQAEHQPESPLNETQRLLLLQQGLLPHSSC

[6] = molecular target: panel of 255 wild-type kinases (Homo sapiens, UniProt Q16288); details: kinase TRKC; 1 µmol/L single concentration; ref DOI: 10.1371/journal.pone.0092146; cited from earlier work
[7] = molecular target: panel of 255 wild-type kinases (Homo sapiens, UniProt P12931); details: kinase SRC; 1 µmol/L single concentration; ref DOI: 10.1371/journal.pone.0092146; cited from earlier work
[8] = molecular target: panel of 255 wild-type kinases (Homo sapiens, UniProt P43405); details: kinase SYK; 1 µmol/L single concentration; ref DOI: 10.1371/journal.pone.0092146; cited from earlier work
[9] = molecular target: panel of 255 wild-type kinases (Homo sapiens, UniProt Q13131); details: AMPKα1/β1/γ1 kinase assay; 1 µmol/L single concentration; ref DOI: 10.1371/journal.pone.0092146; cited from earlier work
[10] = molecular target: panel of 255 wild-type kinases (Homo sapiens, UniProt P08069); details: kinase IGF1R; 1 µmol/L single concentration; ref DOI: 10.1371/journal.pone.0092146; cited from earlier work
[11] = molecular target: panel of 255 wild-type kinases (Homo sapiens, UniProt P14616); details: kinase IRR; 1 µmol/L single concentration; ref DOI: 10.1371/journal.pone.0092146; cited from earlier work
[12] = molecular target: panel of 255 wild-type kinases (Homo sapiens, UniProt Q9UPE1); details: MSSK1; 1 µmol/L single concentration; ref DOI: 10.1371/journal.pone.0092146; cited from earlier work

Row | SMILES | %-inhibition at 1 µmol/L, MAPKAPK2 [1] | %-inhibition ALK [2] | %-inhibition, MAPKAPK5 [3] | %-inhibition at 1 µmol/L, HIPK3 [4] | %-inhibition at 1 µmol/L, TYRO3 [5] | %-inhibition at 1 µmol/L, TRKC [6] | %-inhibition at 1 µmol/L, SRC [7] | %-inhibition at 1 µmol/L, SYK [8] | %-inhibition AMPKα1/β1/γ1 [9] | %-inhibition at 1 µmol/L, IGF1R [10] | %-inhibition at 1 µmol/L, IRR [11] | %-inhibition, MSSK1 [12]
1 | CC(=O)Nc1cccc(-n2c(=O)n(C3CC3)c(=O)c3c(Nc4ccc(I)cc4F)n(C)c(=O)c(C)c32)c1 [trametinib] | -0.335% | -2.82% | -2.22% | 0.0849% | -2.65% | -7.43% | -5.4% | -5% | -12% | -10% | 1.35% | -5%
2 | CCCS(=O)(=O)Nc1ccc(F)c(C(=O)c2c[nH]c3ncc(-c4ccc(Cl)cc4)cc23)c1F [vemurafenib] | -16% | 1.14% | 12% | -6% | 3.16% | 5% | 52% | -3.77% | -1.59% | 10% | 21% | -6.65%
